Experimental findings from PubChem BioAssay (NCI) are described below.

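Briefly, cells in 96-well plates were exposed to five compound concentrations for 48 h, and endpoints were estimated by linear interpolation. At the GI50, growth is halved. TGI is the concentration that stops growth completely.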 A value given as a limit tells only on which side of the number the result lay.

Test systems include CCRF-CEM leukemia; SNB-19 CNS; DLD-1 colon; SNB-78 CNS; SW-620 colon; HOP-62 NSCLC; ACHN renal; NCI-H226 lung; HOP-92 NSCLC.
Assay in all cases: inhibition of tumour cell growth, NCI panel, 48 h

As to `Cc1ccccc1C(=O)Oc1ccc(Oc2ccccc2)cc1`, the TGI in the assay with CCRF-CEM leukemia, in the assay on SNB-19 CNS, in the assay on DLD-1 colon, in the assay on SNB-78 CNS, in the assay on SW-620 colon and in the assay with HOP-62 NSCLC was more than 100 µM throughout. Also, the TGI with ACHN renal and in the assay with NCI-H226 lung was more than 100 µM throughout.
Consider `N=C(N)SCCc1cn2ccccc2n1`, for which the TGI in the assay with CCRF-CEM leukemia, in the assay on SNB-19 CNS, in the assay with DLD-1 colon, in the assay on SNB-78 CNS, in the assay with SW-620 colon and in the assay on HOP-62 NSCLC was more than 100 µM throughout. Besides, the TGI in the assay on ACHN renal and with NCI-H226 lung was more than 100 µM throughout.
Consider `Cn1c(CCC#N)nc2ccc(Br)cc2c1=O`, for which the TGI with CCRF-CEM leukemia, with HOP-92 NSCLC, in the assay on DLD-1 colon, with SW-620 colon, in the assay on HOP-62 NSCLC and in the assay with ACHN renal was more than 100 µM each time. This compound also showed a TGI with NCI-H226 lung of more than 100 µM.
With `Cc1ccc(C)c(NC(=O)c2cc(-c3ccc([N+](=O)[O-])cc3)nc(N)n2)c1`, the TGI in the assay on CCRF-CEM leukemia, in the assay with HOP-92 NSCLC, with SNB-19 CNS, with DLD-1 colon, with SW-620 colon and in the assay on HOP-62 NSCLC was more than 100 µM in each case. For the same compound, the TGI in the assay on ACHN renal and with NCI-H226 lung was more than 100 µM each time.
Consider `Cc1ccc(NC(=O)/C(CC(=O)c2c[n+](=O)c3ccccc3n2O)=N\NC(=O)C[n+]2ccccc2)cc1`, for which the TGI in the assay on CCRF-CEM leukemia, in the assay with SNB-19 CNS, with DLD-1 colon, in the assay with SNB-78 CNS, in the assay with SW-620 colon and in the assay with HOP-62 NSCLC was more than 100 µM each time. The TGI in the assay with ACHN renal and in the assay with NCI-H226 lung was more than 100 µM in each case.
In the case of `CC(C)C(=O)N[C@@H](C)C(=O)N(Cc1ccc2ccccc2c1)N=O`, the TGI in the assay with CCRF-CEM leukemia, with SNB-19 CNS, in the assay with DLD-1 colon, in the assay on SNB-78 CNS, in the assay on SW-620 colon and in the assay with HOP-62 NSCLC was more than 100 µM throughout. The compound also gave a TGI with ACHN renal of more than 100 µM.
As to `C(=C\c1csnn1)/c1cccnc1`, the TGI with SNB-19 CNS, with DLD-1 colon, in the assay on SNB-78 CNS, with SW-620 colon, in the assay with HOP-62 NSCLC and in the assay with ACHN renal was more than 100 µM each time. This compound gave a TGI in the assay with NCI-H226 lung of more than 100 µM.
Take `O=C(O)/C(=C/c1ccccc1[N+](=O)[O-])c1ccccc1`: the TGI in the assay with SNB-19 CNS, in the assay with DLD-1 colon, in the assay on SNB-78 CNS, in the assay on SW-620 colon, in the assay on HOP-62 NSCLC and in the assay on ACHN renal was more than 100 µM each time. The TGI with NCI-H226 lung was more than 100 µM.
Regarding `CC(=O)OC12c3ccccc3C1CCCCCC21OCCCO1` (stereo not given), the TGI with CCRF-CEM leukemia, with SNB-19 CNS, in the assay on DLD-1 colon, with SNB-78 CNS, in the assay with HOP-62 NSCLC and with ACHN renal was more than 100 µM in each case. The compound further showed a TGI with NCI-H226 lung of more than 100 µM.
As to `O=c1cc(Cl)nc[nH]1`, the TGI in the assay with CCRF-CEM leukemia, in the assay on SNB-19 CNS, in the assay with DLD-1 colon, in the assay on SNB-78 CNS, with SW-620 colon and in the assay with HOP-62 NSCLC was more than 100 µM each time. In addition, the TGI in the assay on ACHN renal and in the assay with NCI-H226 lung was more than 100 µM each time.
With `CCC[CH2][Sn]([CH2]CCC)([O]C(=O)c1cccc(F)c1)[O]C(=O)c1cccc(F)c1`, the GI50 in the assay with CCRF-CEM leukemia was 0.239 µM; with SNB-19 CNS, 0.369 µM; in the assay on DLD-1 colon, 1.11 µM; in the assay on SNB-78 CNS it was 0.702 µM; in the assay on HOP-62 NSCLC, 1.91 µM; in the assay on ACHN renal it was 1.3 µM. In the assay with NCI-H226 lung, the GI50 was 1.16 µM. Further, the TGI in the assay with CCRF-CEM leukemia was 0.832 µM; in the assay with SNB-19 CNS, 1.39 µM; in the assay with DLD-1 colon it was 2.32 µM; with SNB-78 CNS it was 2.27 µM; with HOP-62 NSCLC it was 3.38 µM; in the assay with ACHN renal it was 2.59 µM. The TGI in the assay with NCI-H226 lung is 2.4 µM.
Consider `O=C(Nc1c(-c2nc3ccccc3[nH]2)sc(=S)n1-c1ccccc1)c1ccccc1`, for which the TGI with CCRF-CEM leukemia, in the assay with SNB-19 CNS, in the assay with DLD-1 colon, in the assay with SNB-78 CNS, with SW-620 colon and with HOP-62 NSCLC was more than 100 µM in each case. In addition, the TGI with ACHN renal is more than 100 µM; in the assay on NCI-H226 lung it was 58.1 µM.
As for `Cc1cc(NS(=O)(=O)c2ccc(NC(=O)c3cccc4c(N)c5ccccc5nc34)cc2)no1`, the TGI was 66.5 µM with CCRF-CEM leukemia; 34 µM in the assay with SNB-19 CNS; more than 100 µM in the assay with DLD-1 colon; 71.1 µM in the assay on SNB-78 CNS; 94.2 µM in the assay with SW-620 colon; 86.9 µM in the assay with HOP-62 NSCLC. Besides, the TGI was 46.6 µM in the assay on ACHN renal and 33.4 µM with NCI-H226 lung.
